According to US20080200479A1, “Ocaperidone Salts and Pharmaceutical Compositions Containing the Same” (priority 2005, published 2008):
≈ marks a conversion by molar mass, not a printed value. Structures can show the parent of a compound that is named as a salt.

Key:
[1] = Solubility of ocaperidone salts and free base in water; details: for solubility in water (in words): crystalline salt, HPLC grade water pH=6, 25° C., 1 h and 24 h, compared with salts of examples 1, 3-10 and free base
Method: In particular, the solubilities of ocaperidone salts were measured as follows:
UV/visible spectrophotometer: Agilent 8453E
Volumetric flask (5 ml, 10 ml, 20 ml, 100 ml) Mechanical pipettes: Biohit (m1000, m200)
Magnetic stirrer: Heidolph MR3001K
A suspension of 100 mg of crystalline ocaperidone salt or ocaperidone free base in 1 ml HPLC grade pure water (pH=6) was prepared. The suspension was kept at fixed and controlled temperature (ex: 25° C.) under magnetic stirring for 24 hours. A sample was taken, filtered and the solubility of the ocaperidone salts or ocaperidone free base was measured after 1 h and 24 h. Results are given in g/100 ml.

[2] = Solubility of ocaperidone free base in acid solution; type: physicochemical; details: acid solution at pH=1.3

| Structure (SMILES) | solubility in water (in words) [1] | solubility in water (in words) ([1]; listed as ocaperidone pyroglutamic salt) | times more soluble than the succinic acid addition salt ([1]; ocaperidone salt solubility study in water, ratio to succinic acid addition salt) [times] | solubility thermodynamic ([1]; 25 °C, pH 6, water, thermodynamic from solid) [µg/mL] | solubility in acid solution [2] [g/100 ml] |
| --- | --- | --- | --- | --- | --- |
| Cc1nc2c(C)cccn2c(=O)c1CCN1CCC(c2noc3cc(F)ccc23)CC1 [Example 2, Ocaperidone Pyroglutamic Acid Salt] | higher solubility in water than the other salts | unexpectedly high solubility | 31.2 |  |  |
| Cc1nc2c(C)cccn2c(=O)c1CCN1CCC(c2noc3cc(F)ccc23)CC1 [ocaperidone, 3-[2-[4-(6-fluoro-1,2-benzisoxazol-3-yl)-1-piperidinyl]ethyl]-2,9-dimethyl-pyrido-[1,2-a]pyrimidin-4-one] |  |  |  | 7 (≈ 16.6 µM) | 0.25 |
